This is an account of results in patent US12606541B2, “PPARg modulators and methods of use” (Eisai R&D Management Co., Ltd., priority 2020, dated 2026).

Like-named read-outs stand apart in the source and are kept apart here.

Assay [1] concerns UM-UC-9 engineered cells. Kind of assay: Cell proliferation / short-term viability assay, CellTiter-Glo 144 h. Conditions: read-out: CTGlo 144 h UMUC9.5, G150. The format is cell-based, human. As to the method:
Cell Seeding for Proliferation Assay
UM-UC-9 engineered cells were cultured in Dulbecco's Modified Eagle Medium (DMEM) supplemented with 10% FBS, 25 mM glucose (high glucose), 4.0 mM L-glutamine, 2.0 mM GlutaMAX™, 1.0 mM pyruvate, 1.0% non-essential amino acids (NEAA) in a 95% humidified incubator at 37° C. with 5% CO2. Cell banks of UM-UC-9 engineered assay-ready cells (ARCs) were prepared from a very active growth stage. Vials of ARCs containing approximately 5×10^6 cells per vial were stored in liquid nitrogen vapor phase cryostorage until use.
For making assay plates, ARCs were recovered from cryostorage, strained in a […] cell strainer, verified for cell viability >90% and counted using a cell counter (Cellometer Auto 1000, Nexelom). Each cell line was seeded into 384-well plates (50 μl/well) using DMEM medium at a density previously determined to be in log growth phase 7 days post-seeding (500 cells/well) using a bulk reagent dispenser (Multidrop™ Combi, Thermo Scientific) with a large-bore plastic-tip cassette pre-sanitized with 70% ethanol. One plate of cells was designated as the pretreatment time-zero (T0) control. Freshly seeded plates were allowed to sit lidded for 30 minutes within a biosafety cabinet for cells to settle distributed within the plate wells uniformly and then placed into an automated incubator (STX110, Liconic) at 37° C., 5% CO2, and 95% relative humidity.
Preparation of Test Compound in Assay-Ready Plate
Compounds were stored in a low-temperature sample archive as 10 mM dimethyl sulfoxide (DMSO) solutions at −20° C. under reduced humidity (−45° C. dew point) and protected from light. All samples in the automated archive are stored in 2D barcoded polypropylene tubes, tracked through a laboratory information management system (LIMS), and have been verified for identity and purity by NMR (Chemistry, H3 Biomedicine) and by LCMS (Analytical Chemistry, H3 Biomedicine) at the time of sample registration. Identity by mass matching and purity are again verified at the time of sample request fulfillment by redundant LCMS methods (acidic and basic separation protocols; Analytical Chemistry, H3 Biomedicine). Samples retrieved from low-temperature archive storage were solubilized by heated sonication (Bransonic® Ultrasonic Bath, Branson), transferred (Microlab Starlet, Hamilton) and serially-diluted (Viaflo Assist, Integra) by low-volume liquid handlers, and tracked in LIMS by automation log files to create a ID barcoded master dose-response plate (MDR) to serve as a standard source for all assay-ready plates (ARP) used within an experiment. ARPs prepared by acoustic transfer (ATS-100, EDC) of nL volumes from the MDR source were heat-sealed (PlateLoc, Agilent) and stored at −20° C. prior to use (<7 days from production). Tracking of liquid transfers via acoustic dispenser log files were used to update the LIMS system for all ARP plate maps.
Measurement of Pretreatment Control Cells and Sample Anti-Proliferative Effects on Treated Cells
On day 0 (pretreatment cells) or day 7 (treated cells), a cell proliferation assay was performed using an automated robotic assay platform (ACell, High-Res Biosolutions). Cell ARP's were removed from incubation, their plate lid discarded, and using a bulk reagent dispenser (Multidrop™ Combi, Thermo Scientific with a small-bore metal-tip cassette) 25 μL (1/2 volume) of Cell Titer-Glo® 2.0 Cell Viability Assay reagent (Promega) was added to wells of columns 1-23 (column 24 will be used as plate background or positive control). Cell ARP's were incubated at room temperature in an automation hotel position for a total of 1.0 minute while the next plate was delivered to the bulk reagent dispenser and then lid-free cell ARP's were returned to incubate at 37° C. for 2.5 hours. […]
For orientation: In ATP-based viability assays light output follows the ATP content of the culture.

Assay [2] has as its target T1, His6-TEV-PPARγ-(234-505) (Homo sapiens, UniProt P37231).
T1 construct: The His6-TEV-PPARγ-(234-505) protein for assay was expressed and purified; TEV cleavage site (N); made in house
T1 sequence (P37231 234-505): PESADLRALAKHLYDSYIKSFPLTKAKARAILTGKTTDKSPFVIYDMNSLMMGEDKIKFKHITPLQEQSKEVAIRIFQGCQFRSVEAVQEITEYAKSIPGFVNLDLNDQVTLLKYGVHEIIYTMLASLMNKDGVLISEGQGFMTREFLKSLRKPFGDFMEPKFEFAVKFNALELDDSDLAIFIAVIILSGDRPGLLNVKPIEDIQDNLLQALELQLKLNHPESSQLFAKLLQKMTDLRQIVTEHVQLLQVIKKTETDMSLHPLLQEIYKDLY
Kind of assay: TR-FRET Assay to Measure Co-R Peptide Recruitment to PPARγ. The class given is biochemical. In a few lines:
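His-tagged PPARγ (or controls) was preincubated with compound for 20 minutes at room temperature, then 5 nM anti-His terbium antibody and 200 nM FITC-labeled SMRT-ID2 corepressor peptide (final) were added for a further hour. TR-FRET signal was normalized to percent response using 500 nM T0070907 and DMSO controls.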

Setting [3] is: Co-R peptide (SMRT-ID2) recruitment, top final concentration 20 μM, read-out: TR-FRET i-Ag, AC50.
[4] abbreviates: Co-R peptide recruitment to PPARγ, read-out: TR-FRET AC50.

For `COc1cc(-c2cc(C(=O)N3CCC(C(=O)N[C@H]4CC[C@](C)(O)CC4)CC3)n[nH]2)c(Cl)cn1` [Example 198, 1-(5-(5-chloro-2-methoxypyridin-4-yl)-1H-pyrazole-3-carbonyl)-N-((1r,4r)-4-hydroxy-4-methylcyclohexyl)piperidine-4-carboxamide], the IC50 in assay [1] (Homo sapiens, UM-UC-9, 144 h) was found to be 4160 nM. For the same compound, the AC50 in assay [2] (setting [3]) came out at 917 nM.
The matching figures for `COc1cc(-c2cc(C(=O)N3[C@@H]4CC[C@H]3C[C@H](C(=O)NC3CCC(C(F)(F)F)OC3)C4)n[nH]2)c(F)cn1` (single isomer, unassigned) [Example 280-A]: 5800 nM and 895 nM.
Turning to `COc1cc(-c2cc(C(=O)N3CCC(C(=O)NC4CCN(c5cnc(C)nc5)C4)CC34CC4)n[nH]2)c(F)cn1` (mixture of isomers) [Example 453, (S)-4-(5-(5-fluoro-2-methoxypyridin-4-yl)-1H-pyrazole-3-carbonyl)-N—((S)-1-(2-methylpyrimidin-5-yl)pyrrolidin-3-yl)-4-azaspiro[2.5]octane-7-carboxamide and (S)-4-(5-(5-fluoro-2-methoxypyridin-4-yl)-1H-pyrazole-3-carbonyl)-N—((R)-1-(2-methylpyrimidin-5-yl)pyrrolidin-3-yl)-4-azaspiro[2.5]octane-7-carboxamide], the IC50 in assay [1] amounted to 44.2 nM. Besides, in assay [2] (setting [3]), the AC50 worked out at 25.6 nM.
The matching figures for `COc1cc(-c2cc(C(=O)N3CC[C@H](C(=O)NC4CCC(O)(C(F)(F)F)C(O)C4)CC34CC4)n[nH]2)c(F)cn1` (single isomer, unassigned) [Example 474-D]: 2020 nM and 331 nM.
Regarding `COc1cc(-c2cc(C(=O)N3CC[C@H](C(=O)NC4CCC(N5CCOCC5)CC4)CC34CC4)n[nH]2)c(F)cn1` (single isomer, unassigned) [Example 418-A], the IC50 in assay [1] (Homo sapiens, UM-UC-9, 144 h) came to 152 nM. For the same compound, the AC50 in assay [2] (setting [3]) was found to be 67.4 nM.
Take `COc1cc(-c2cc(C(=O)N3CC[C@H](C(=O)NCc4ncc(C#N)cn4)CC34CC4)n[nH]2)c(F)cn1` [Example 456, (S)—N-((5-cyanopyrimidin-2-yl)methyl)-4-(5-(5-fluoro-2-methoxypyridin-4-yl)-1H-pyrazole-3-carbonyl)-4-azaspiro[2.5]octane-7-carboxamide]: in assay [1] (Homo sapiens, UM-UC-9, 144 h), the IC50 was found to be 312 nM.
For the compound `COc1cc(-c2cc(C(=O)N3CCC(C(=O)NC(C)c4cccc(Cl)c4)CC3)n[nH]2)c(Cl)cn1` (racemic) [Example 115, (R)-1-[5-(5-chloro-2-methoxypyridin-4-yl)-1H-pyrazole-3-carbonyl]-N-[1-(3-chlorophenyl)ethyl]piperidine-4-carboxamide and (S)-1-[5-(5-chloro-2-methoxypyridin-4-yl)-1H-pyrazole-3-carbonyl]-N-[1-(3-chlorophenyl)ethyl]piperidine-4-carboxamide], the IC50 in assay [1] turned out to be 428 nM.
For `COc1cnc(CNC(=O)[C@H]2CCN(C(=O)c3cc(-c4cc(OC)ncc4F)[nH]n3)C3(CC3)C2)c(C(F)(F)F)c1` [Example 527, (S)-4-(5-(5-fluoro-2-methoxypyridin-4-yl)-1H-pyrazole-3-carbonyl)-N-((5-methoxy-3-(trifluoromethyl)pyridin-2-yl)methyl)-4-azaspiro[2.5]octane-7-carboxamide], the IC50 in assay [1] (Homo sapiens, UM-UC-9, 144 h) was determined as 5 nM.
The same measure, in the same setting: under `COc1cc(-c2cc(C(=O)N3[C@@H]4CC[C@H]3C[C@H](C(=O)NC3CCC(C#N)(C(F)(F)F)CC3)C4)n[nH]2)c(F)cn1` (stereo partly drawn) [Example 438, (1R,3s,5S)—N-(4-cyano-4-(trifluoromethyl)cyclohexyl)-8-(5-(5-fluoro-2-methoxypyridin-4-yl)-1H-pyrazole-3-carbonyl)-8-azabicyclo[3.2.1]octane-3-carboxamide] stands 1150 nM.
On to `COc1cc(-c2cc(C(=O)N3CCC(C(=O)NC4CCC(C)CC4)CC3)n[nH]2)c(Cl)cn1` (single isomer, unassigned) [Example 101-A], for which the IC50 in assay [1] (listed as 101a) was above 10000 nM.
Turning to `COc1cc(-c2cc(C(=O)N3CC[C@H](C(=O)NCc4nc(C)cnc4Cl)CC34CC4)n[nH]2)c(F)cn1` [Example 451, (S)—N-((3-chloro-6-methylpyrazin-2-yl)methyl)-4-(5-(5-fluoro-2-methoxypyridin-4-yl)-1H-pyrazole-3-carbonyl)-4-azaspiro[2.5]octane-7-carboxamide], the IC50 in assay [1] (Homo sapiens, UM-UC-9, 144 h) was determined as 9.6 nM.
In the case of `COc1cc(-c2cc(C(=O)N3CCC(C(=O)NC4CCC(C(F)(F)F)CC4)CC3)n[nH]2)c(Cl)cn1` (mixture of isomers) [Example 118, 1-[5-(5-chloro-2-methoxypyridin-4-yl)-1H-pyrazole-3-carbonyl]-N-[(1s,4s)-4-(trifluoromethyl)cyclohexyl]piperidine-4-carboxamide and 1-[5-(5-chloro-2-methoxypyridin-4-yl)-1H-pyrazole-3-carbonyl]-N-[(1r,4r)-4-(trifluoromethyl)cyclohexyl]piperidine-4-carboxamide], the IC50 in assay [1] was 121 nM.
`COc1cc(-c2cc(C(=O)N3CC4CC3CC4C(=O)NCc3cccc(Cl)c3)n[nH]2)c(F)cn1` (centres unmarked) [N-[(3-chlorophenyl)methyl]-2-[5-(5-fluoro-2-methoxypyridin-4-yl)-1H-pyrazole-3-carbonyl]-2-azabicyclo[2.2.1]heptane-5-carboxamide]: the AC50 in assay [2] (setting [4]) is above 1000 nM.
Still for that read-out and setting: for `COc1cc(-c2cc(C(=O)N3CCC(C(=O)NCC4(O)CC4)CC3)n[nH]2)c(Cl)cn1` [1-[5-(5-chloro-2-methoxypyridin-4-yl)-1H-pyrazole-3-carbonyl]-N-[(1-hydroxycyclopropyl)methyl]piperidine-4-carboxamide] the value was above 1000 nM; for `O=C(c1cc(-c2ccncc2)[nH]n1)N1CCC(C(=O)N2CCC[C@H]2CO)CC1` [[(2S)-1-{1-[5-(pyridin-4-yl)-1H-pyrazole-3-carbonyl]piperidine-4-carbonyl}pyrrolidin-2-yl]methanol], above 1000 nM.
On the same count and under the same terms, under `COc1cc(-c2cc(C(=O)N3CCC(C(=O)NC4CNC(=O)C4)CC3)n[nH]2)c(Cl)cn1` (centres unmarked) [1-[5-(5-chloro-2-methoxypyridin-4-yl)-1H-pyrazole-3-carbonyl]-N-(5-oxopyrrolidin-3-yl)piperidine-4-carboxamide] stands above 1000 nM; under `Cc1cc(CNC(=O)C2CCN(C(=O)c3cc(-c4ccncc4)[nH]n3)CC2)cc(C)n1` [N-[(2,6-dimethylpyridin-4-yl)methyl]-1-[5-(pyridin-4-yl)-1H-pyrazole-3-carbonyl]piperidine-4-carboxamide], above 1000 nM.
Still for that read-out and setting: under `COc1cc(-c2cc(C(=O)N3CCC(C(=O)NC4CCN(C(C)(C)C)CC4)CC3)n[nH]2)c(Cl)cn1` [N-(1-tert-butylpiperidin-4-yl)-1-[5-(5-chloro-2-methoxypyridin-4-yl)-1H-pyrazole-3-carbonyl]piperidine-4-carboxamide] stands above 1000 nM.
